# Test results reported in patent US4892875A, “Substituted heterocyclylalkyl esters of 1,4-dihydropyridine-3,5-dicarboxylic acids” (Takeda Chemical Industries, Ltd., priority 1982, dated 1990).
# Structures can show the parent of a compound that is named as a salt. Where two headings read alike, the source gives them in different places.
# Key:
# [1] = test system: spontaneously hypertensive rats; experiment: Antihypertensive action (systolic blood pressure, caudal artery) in male spontaneously hypertensive rats; format: in vivo, rat; details: 10 mg/kg oral; for Change in blood pressure 1 hr. after treatment / Change in blood pressure 5 hrs. after treatment: after minus before medication, * P < 0.05 vs control; for Duration of antihypertensive effect: measured 1, 5, 8 and 24 hours after administration
# Procedure: Male spontaneously hypertensive rats aged 10 to 11 weeks were used (in groups of 3 to 6 individuals). […] Each test compound was suspended in a 5% solution of gum arabic and orally administered. The dosage was 10 mg/kg for all compounds. Animals in a control group was given the above solution of gum arabic only.
# [2] = test system: spontaneously hypertensive rats; experiment: Renal blood flow increasing effect (renal circulation improving effect) in anesthetized male spontaneously hypertensive rats; format: in vivo; details: Rattus norvegicus
# Procedure: Male spontaneously hypertensive rats aged 10 to 11 weeks (3 to 6 animals per group) were anesthetized with pentobarbital and used. After laparotomy, an electromagnetic flowmeter probe (Narco) was fitted to the left renal artery and the renal blood flow was continuously recorded on a polygraph (Sanei Sokki K.K.). […] Each test compound was dissolved in polyethylene glycol 400 to prepare a stock solution. This stock solution was diluted five-fold with physiological saline and the dilution was intravenously administered to rats in a volume of 0.5 ml/kg body weight. The dosage was 0.01 mg/kg for all test compounds. The renal blood flow was measured over a period of 40 minutes following the medication. The values shown are: [formula]
# [3] = 1 min, 0.01 mg/kg intravenous, 1 minute, * P < 0.05 vs control, read-out: Change in renal blood flow, 1 Minute after medication
# [4] = 20 min, 0.01 mg/kg intravenous, 20 minutes, * P < 0.05 vs control, read-out: Change in renal blood flow, 20 Minutes after medication
# [5] = 40 min, 0.01 mg/kg intravenous, 40 minutes, * P < 0.05 vs control, read-out: Change in renal blood flow, 40 Minutes after medication
SMILES,Change in blood pressure 1 hr. after treatment [1] [mmHg],Change in blood pressure 5 hrs. after treatment [1],Duration of antihypertensive effect [1],"change in vivo at 0.01 mg/kg [2, 3] [%]","change in vivo at 0.01 mg/kg [2, 4] [%]","change in vivo at 0.01 mg/kg [2, 5] [%]","change in vivo at 0.01 mg/kg ([2]; iv, 1 min, read-out: Change in renal blood flow, 1 Minute after medication) [%]","change in vivo at 0.01 mg/kg ([2]; iv, 20 min, read-out: Change in renal blood flow, 20 Minutes after medication) [%]","change in vivo at 0.01 mg/kg ([2]; iv, 40 min, read-out: Change in renal blood flow, 40 Minutes after medication) [%]"
"COC(=O)C1=C(C)NC(C)=C(C(=O)OCCN2CCCN(C(c3ccccc3)c3ccccc3)CC2)C1c1cccc([N+](=O)[O-])c1 (stereo not drawn) [Example 15, 2-(4-benzhydrylhomopiperazin-1-yl)-ethyl methyl 2,6-dimethyl-4-(3-nitrophenyl)-1,4-dihydropyridine-3,5-dicarboxylate]",-38,-18 mmHg,5 to 8 h,4.2,4.2,2.9,–,–,–
"COC(=O)C1=C(C)NC(C)=C(C(=O)OCCN2CCN(C(c3ccc(F)cc3)c3ccc(F)cc3)CC2)C1c1cccc([N+](=O)[O-])c1 (stereo not drawn) [Example 8, 2-[4-(4,4'-difluorobenzhydryl)-1-piperazinyl]ethyl methyl 2,6-dimethyl-4-(3-nitrophenyl)-1,4-dihydropyridine-3,5-dicarboxylate]",-96,-98 mmHg,> 24 h,5.7,6.4,9.7,–,–,–
"COC(=O)C1=C(C)NC(C)=C(C(=O)OCCN2CCN(C(c3ccccc3)c3ccccc3)CC2)C1c1cccc([N+](=O)[O-])c1.Cl.Cl (stereo not drawn) [Example 1, 2-(4-benzhydryl-1-piperazinyl)ethyl methyl 2,6-dimethyl-4-(3-nitrophenyl)-1,4-dihydropyridine-3,5-dicarboxylate dihydrochloride]",-89,-91 mmHg,> 24 h,10.4,13.4,12.8,–,–,–
"COC(=O)C1=C(C)NC(C)=C(C(=O)OCCN2CCN(C(c3ccccc3)c3ccccc3)CC2)C1c1cccc(C(F)(F)F)c1 (stereo not drawn) [Example 23, 2-(4-benzhydryl-1-piperazinyl)ethyl methyl 2,6-dimethyl-4-(3-trifluoromethylphenyl)-1,4-dihydropyridine-3,5-dicarboxylate]",-59,-66 mmHg,8 to 24 h,6.7,9.7,10.9,–,–,–
"COC(=O)C1=C(C)NC(C)=C(C(=O)OCCCN2CCN(C(c3ccccc3)c3ccccc3)CC2)C1c1cccc([N+](=O)[O-])c1 (stereo not drawn) [Example 37, 3-(4-benzhydryl-1-piperazinyl)propyl methyl 2,6-dimethyl-4-(3-nitrophenyl)-1,4-dihydropyridine-3,5-dicarboxylate]",-63,-30 mmHg,ca. 8 hrs.,8.5,10.8,11.3,–,–,–
"COC(=O)C1=C(C)NC(C)=C(C(=O)OCCN2CCN(C(c3ccccc3)c3ccccc3)CC2)C1c1cccc(Cl)c1 (stereo not drawn) [Example 22, 2-(4-benzhydryl-1-piperazinyl)ethyl methyl 4-(3-chlorophenyl)-2,6-dimethyl-1,4-dihydropyridine-3,5-dicarboxylate]",-97,-83 mmHg,8 to 24 h,7.5,7.8,9.6,–,–,–
"COC(=O)C1=C(C)NC(C)=C(C(=O)OCCN2CCN(C(c3ccc(OC)cc3)c3ccc(OC)cc3)CC2)C1c1cccc([N+](=O)[O-])c1 (stereo not drawn) [Example 10, 2-[4-(4,4'-dimethoxybenzhydryl)-1-piperazinyl]ethyl methyl 2,6-dimethyl-4-(3-nitrophenyl)-1,4-dihydropyridine-3,5-dicarboxylate]",-88,-57 mmHg,8 to 24 h,6.9,8.3,6.8,–,–,–
"COC(=O)C1=C(C)NC(C)=C(C(=O)OCCN(C)Cc2ccccc2)C1c1cccc([N+](=O)[O-])c1 (stereo not drawn) [Nicardipine.HCl, reference compound]",-38,+2 mmHg,< 5 h,-15,-1.9,0.3,–,–,–
"CCOC(=O)C1=C(C)NC(C)=C(C(=O)OCCN2CCN(C(c3ccc(C)cc3)c3ccc(C)cc3)CC2)C1c1cccc([N+](=O)[O-])c1 (stereo not drawn) [Example 31, 2-[4-(4,4'-dimethylbenzhydryl)-1-piperazinyl]ethyl ethyl 2,6-dimethyl-4-(3-nitrophenyl)-1,4-dihydropyridine-3,5-dicarboxylate]",-77,-77 mmHg,8 to 24 h,3.3,4.3,1.8,–,–,–
"COC(=O)C1=C(C)NC(C)=C(C(=O)OCCN2CCN(C(c3ccccc3)c3ccccc3)CC2)C1c1cccc(Cl)c1Cl (stereo not drawn) [Example 6, 2-(4-benzhydryl-1-piperazinyl)ethyl methyl 4-(2,3-dichlorophenyl)-2,6-dimethyl-1,4-dihydropyridine-3,5-dicarboxylate]",-30,-33 mmHg,8 to 24 h,4.5,7.5,6,–,–,–
"COC(=O)C1=C(C)NC(C)=C(C(=O)OCCN2CCN(c3cccc(C(F)(F)F)c3)CC2)C1c1cccc([N+](=O)[O-])c1 (stereo not drawn) [Example 18, methyl 2-[4-(3-trifluoromethylphenyl)-1-piperazinyl]ethyl 2,6-dimethyl-4-(3-nitrophenyl)-1,4-dihydropyridine-3,5-dicarboxylate]",-68,-43 mmHg,8 to 24 h,8.8,4.2,5,–,–,–
"COC(=O)C1=C(C)NC(C)=C(C(=O)OC)C1c1ccccc1[N+](=O)[O-] [Nifedipine, reference compound]",-45,-3 mmHg,< 5 h,–,–,–,3,3.1,2.2
"COC(=O)C1=C(C)NC(C)=C(C(=O)OCCN2CCN(c3ccc(C)c(Cl)c3)CC2)C1c1cccc([N+](=O)[O-])c1 (stereo not drawn) [Example 57, 2-[4-(3-chloro-4-methylphenyl)-1-piperazinyl]ethyl methyl 2,6-dimethyl-4-(3-nitrophenyl)-1,4-dihydropyridine-3,5-dicarboxylate]",-85,-69 mmHg,8 to 24 h,–,–,–,–,–,–
"CCOC(=O)C1=C(C)NC(C)=C(C(=O)OCCN2CCN(C(c3ccccc3)c3ccccc3)CC2)C1c1cccc(Cl)c1Cl (stereo not drawn) [Example 7, 2-(4-benzhydryl-1-piperazinyl)ethyl ethyl 4-(2,3-dichlorophenyl)-2,6-dimethyl-1,4-dihydropyridine-3,5-dicarboxylate]",-59,-79 mmHg,> 24 h,–,–,–,–,–,–
"COCCOC(=O)C1=C(C)NC(C)=C(C(=O)OCCN2CCN(C(c3ccccc3)c3ccccc3)CC2)C1c1cccc([N+](=O)[O-])c1 (stereo not drawn) [Example 30, 2-(4-benzhydryl-1-piperazinyl)ethyl 2-methoxyethyl 2,6-dimethyl-4-(3-nitrophenyl)-1,4-dihydropyridine-3,5-dicarboxylate]",-48,-31 mmHg,8 to 24 h,–,–,–,–,–,–
"COC(=O)C1=C(C)NC(C)=C(C(=O)OCCN2CCN(c3ccc(F)cc3)CC2)C1c1cccc([N+](=O)[O-])c1.Cl (stereo not drawn) [Example 16, 2-[4-(4-fluorophenyl)-1-piperazinyl]ethyl methyl 2,6-dimethyl-4-(3-nitrophenyl)-1,4-dihydropyridine-3,5-dicarboxylate hydrochloride]",-51,-45 mmHg,8 to 24 h,–,–,–,–,–,–
